# Results: the supplement of paper PMC10307832
# Experiments:
# Experiment in all cases: relative viability (nuclei count vs DMSO), 5 days (fraction); higher = more cells survive
# Tipifarnib + Palbociclib = compound: Cn1cncc1[C@@](N)(c1ccc(Cl)cc1)c1ccc2c(c1)c(-c1cccc(Cl)c1)cc(=O)n2C [Tipifarnib] + CC(=O)c1c(C)c2cnc(Nc3ccc(N4CCNCC4)cn3)nc2n(C2CCCC2)c1=O [Palbociclib] (partner 0.5 µM)
# Procedure, shortened: (§1)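 Lung cancer cell lines were seeded in 1536-well plates and dosed by pin tool the next day, with either a single drug or a fixed anchor-drug dose combined with five library-drug doses (not always all listed) spaced in √10 steps. Five days later, one step fixed the cells and stained their nuclei (final 0.05% Triton X-100, 1% formaldehyde, 1 ug/ml Hoechst), and nuclei were counted on 4× images. Relative viability is the nuclei count in treated wells divided by the count in vehicle wells, and each value is the median of duplicate plates.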
# Tipifarnib + Pictilisib = compound: Cn1cncc1[C@@](N)(c1ccc(Cl)cc1)c1ccc2c(c1)c(-c1cccc(Cl)c1)cc(=O)n2C [Tipifarnib] + CS(=O)(=O)N1CCN(Cc2cc3nc(-c4cccc5[nH]ncc45)nc(N4CCOCC4)c3s2)CC1 [Pictilisib] (partner 1 µM)
# Procedure, shortened: as §1
# Tipifarnib + Phenformin = compound: Cn1cncc1[C@@](N)(c1ccc(Cl)cc1)c1ccc2c(c1)c(-c1cccc(Cl)c1)cc(=O)n2C [Tipifarnib] + N=C(N)NC(=N)NCCc1ccccc1 [Phenformin] (partner 250 µM)
# Procedure, shortened: as §1
# Tipifarnib + Decitabine = compound: Cn1cncc1[C@@](N)(c1ccc(Cl)cc1)c1ccc2c(c1)c(-c1cccc(Cl)c1)cc(=O)n2C [Tipifarnib] + Nc1ncn([C@H]2C[C@H](O)[C@@H](CO)O2)c(=O)n1 [Decitabine] (partner 2 µM)
# Procedure, shortened: as §1
Cell Line,relative viability (Tipifarnib + Palbociclib; first compound 0.01 µM),relative viability (Tipifarnib + Palbociclib; first compound 0.03162 µM),relative viability (Tipifarnib + Palbociclib; first compound 0.1 µM),relative viability (Tipifarnib + Palbociclib; first compound 0.3162 µM),relative viability (Tipifarnib + Palbociclib; first compound 1 µM),relative viability (Tipifarnib + Pictilisib; first compound 0.01 µM),relative viability (Tipifarnib + Pictilisib; first compound 0.03162 µM),relative viability (Tipifarnib + Pictilisib; first compound 0.1 µM),relative viability (Tipifarnib + Pictilisib; first compound 0.3162 µM),relative viability (Tipifarnib + Pictilisib; first compound 1 µM),relative viability (Tipifarnib + Phenformin; first compound 0.01 µM),relative viability (Tipifarnib + Phenformin; first compound 0.03162 µM),relative viability (Tipifarnib + Phenformin; first compound 0.1 µM),relative viability (Tipifarnib + Phenformin; first compound 0.3162 µM),relative viability (Tipifarnib + Phenformin; first compound 1 µM),relative viability (Tipifarnib + Decitabine; first compound 0.01 µM),relative viability (Tipifarnib + Decitabine; first compound 0.03162 µM),relative viability (Tipifarnib + Decitabine; first compound 0.1 µM),relative viability (Tipifarnib + Decitabine; first compound 0.3162 µM),relative viability (Tipifarnib + Decitabine; first compound 1 µM)
NCI-H1651,0.502,0.52,0.544,0.502,0.511,0.632,0.566,0.562,0.512,0.319,0.322,0.327,0.319,0.266,0.235,0.667,0.597,0.658,0.761,0.421
NCI-H1792,0.642,0.621,0.522,0.512,0.479,0.237,0.235,0.152,0.117,0.131,–,–,0.125,0.0695,0.114,0.446,0.439,0.308,0.28,0.272
NCI-H2023,0.297,0.284,0.238,0.211,0.202,0.238,0.212,0.203,0.169,0.159,0.415,0.381,0.273,0.272,0.236,0.219,0.2,0.215,0.176,0.165
COR-L 105,0.403,0.385,0.416,0.408,0.365,0.47,0.33,0.357,0.353,0.355,0.387,0.389,0.447,0.339,0.281,0.635,0.636,0.478,0.479,0.473
NCI-H1734,0.353,0.327,0.323,0.298,0.261,0.486,0.356,0.38,0.331,0.346,0.391,0.352,0.373,0.251,0.275,0.565,0.485,0.557,0.434,0.369
NCI-H3122,0.193,0.189,0.196,0.179,0.14,0.6,0.489,0.442,0.347,0.27,0.413,0.419,0.419,0.356,0.228,0.414,0.407,0.415,0.397,0.308
HCC-78,0.478,0.54,0.558,0.454,0.456,0.19,0.24,0.191,0.2,0.176,0.699,0.756,0.611,0.558,0.423,0.786,0.756,0.719,0.664,0.514
NCI-H2085,0.492,0.431,0.472,0.413,0.506,0.513,0.478,0.446,0.541,0.43,0.777,0.442,0.433,0.385,0.532,0.558,0.59,0.519,0.493,0.536
